Like-named read-outs stand apart in the source and are kept apart here.
Columns and labels:
[1] = target: Electric-eel AChE (EC 3.1.1.7) (Electrophorus electricus, UniProt O42275); assay: biochemical; details: means ± standard deviation of triplicate independent experiments; substrate acetylthiocholine iodide; 37°C, pH 8.0
[2] = target: horse-serum BuChE (EC3.1.1.8) (Equus caballus, UniProt P81908); assay: biochemical; type: biochemical; details: for Selectivity for BuChE/AChE: ratio IC50 BuChE / IC50 AChE; for IC50: substrate butyrylthiocholine, 37°C, pH 8.0
Chain of horse-serum BuChE (EC3.1.1.8) (P81908 whole entry): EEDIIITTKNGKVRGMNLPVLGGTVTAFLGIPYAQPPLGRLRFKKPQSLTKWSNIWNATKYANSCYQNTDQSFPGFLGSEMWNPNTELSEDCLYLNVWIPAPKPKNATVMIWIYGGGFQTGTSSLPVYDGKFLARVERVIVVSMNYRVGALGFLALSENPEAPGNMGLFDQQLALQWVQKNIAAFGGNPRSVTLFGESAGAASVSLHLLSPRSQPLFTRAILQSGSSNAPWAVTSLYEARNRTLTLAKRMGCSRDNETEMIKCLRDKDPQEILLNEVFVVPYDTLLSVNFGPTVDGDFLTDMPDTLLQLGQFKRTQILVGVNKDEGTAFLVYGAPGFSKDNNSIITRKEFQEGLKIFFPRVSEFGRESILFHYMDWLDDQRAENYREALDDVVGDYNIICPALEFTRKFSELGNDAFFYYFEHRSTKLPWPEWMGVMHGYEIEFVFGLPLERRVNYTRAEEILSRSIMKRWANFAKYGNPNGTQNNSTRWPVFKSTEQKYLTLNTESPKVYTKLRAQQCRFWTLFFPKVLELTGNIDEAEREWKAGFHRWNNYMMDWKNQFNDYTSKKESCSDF

AChE = target: T1, AChE (Electrophorus electricus, UniProt O42275); assay: Enzyme kinetic assay on AChE (Lineweaver-Burk plots); type: biochemical, Electric-eel; details: curves intersect at the secondary quadrant
T1 construct: purchased Sigma
T1 sequence (O42275 24-633): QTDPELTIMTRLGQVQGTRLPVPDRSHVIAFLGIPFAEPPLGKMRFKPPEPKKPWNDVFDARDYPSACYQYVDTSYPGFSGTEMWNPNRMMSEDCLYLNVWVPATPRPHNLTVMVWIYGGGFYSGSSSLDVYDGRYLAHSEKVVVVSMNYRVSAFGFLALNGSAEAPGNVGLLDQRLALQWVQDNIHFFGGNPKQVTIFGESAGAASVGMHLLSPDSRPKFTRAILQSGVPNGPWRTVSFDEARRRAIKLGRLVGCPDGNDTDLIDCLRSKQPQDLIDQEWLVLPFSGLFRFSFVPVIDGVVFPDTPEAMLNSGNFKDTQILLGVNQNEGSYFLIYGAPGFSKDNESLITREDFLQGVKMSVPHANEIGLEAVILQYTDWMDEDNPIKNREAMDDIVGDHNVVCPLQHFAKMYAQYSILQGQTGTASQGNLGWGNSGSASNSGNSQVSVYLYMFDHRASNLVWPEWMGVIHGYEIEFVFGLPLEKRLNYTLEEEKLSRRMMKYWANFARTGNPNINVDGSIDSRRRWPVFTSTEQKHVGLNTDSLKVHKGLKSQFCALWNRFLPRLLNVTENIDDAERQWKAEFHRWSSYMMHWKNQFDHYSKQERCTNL

BuChE = BuChE (Equus caballus, UniProt P81908); type: biochemical; details: Lineweaver-Burk plots, curves intersect at the secondary quadrant
Chain of BuChE (P81908 whole entry): as the sequence (P81908 whole entry) above

[3] = listed as 2-((diethylamino)methyl)-1-hydroxy-3-(3-methylbut-2-enyloxy)-9H-xanthen-9-one

Chain of Electric-eel AChE (EC 3.1.1.7) (O42275 24-633): as the sequence (O42275 24-633) above

SMILES	IC50 [1]	Inhibition activity against BuChE at 100 μM [2]	Selectivity for BuChE/AChE [2]	IC50 [2]	Inhibition mode on AChE (AChE)	Inhibition mode on AChE (AChE; [3])	Inhibition mode on BuChE (BuChE)	Inhibition mode on BuChE (BuChE; [3])
C=CCOc1cc2oc3ccccc3c(=O)c2c(O)c1CN1CCOCC1 [3e, 3-allyloxy-1-hydroxy-2-(morpholinomethyl)-9H-xanthen-9-one]	74.7 ± 4.07 µM	did not show any inhibition activity	>1.34	> 100 µM	–	–	–	–
O=c1c2ccccc2oc2cc(O)c(CN3CCCCC3)c(O)c12 [1d, 1,3-dihydroxy-2-(piperidin-1-ylmethyl)-9H-xanthen-9-one]	79.3 ± 5.78 µM	–	0.54	43 ± 1.76 µM	–	–	–	–
CCN(CC)Cc1c(O)cc2oc3ccccc3c(=O)c2c1O [1b, 2-((diethylamino)methyl)-1,3-dihydroxy-9H-xanthen-9-one]	73.7 ± 1.36 µM	–	0.50	37 ± 0.56 µM	–	–	–	–
CCN(CC)Cc1c(OC)cc2oc3ccccc3c(=O)c2c1O [2b, 2-((diethylamino)methyl)-1-hydroxy-3-methoxy-9H-xanthen-9-one]	2.4 ± 0.49 µM	–	2.83	6.79 ± 0.56 µM	–	–	–	–
C=CCOc1cc2oc3ccccc3c(=O)c2c(O)c1CN(CC)CC [3b, 3-allyloxy-2-((diethylamino)methyl)-1-hydroxy-9H-xanthen-9-one]	6 ± 0.33 µM	–	0.26	1.54 ± 0.14 µM	–	–	–	–
CN(C)Cc1c(O)cc2oc3ccccc3c(=O)c2c1O [1a, 2-((dimethylamino)methyl)-1,3-dihydroxy-9H-xanthen-9-one]	107 ± 5.78 µM	–	0.59	62.9 ± 0.84 µM	–	–	–	–
C=CCOc1cc2oc3ccccc3c(=O)c2c(O)c1CN1CCCC1 [3c, 3-allyloxy-1-hydroxy-2-(pyrrolidin-1-ylmethyl)-9H-xanthen-9-one]	4.36 ± 0.58 µM	–	0.70	3.05 ± 0.13 µM	–	–	–	–
CC(C)=CCOc1cc2oc3ccccc3c(=O)c2c(O)c1CN(C)C [4a, 2-((dimethylamino)methyl)-1-hydroxy-3-(3-methylbut-2-enyloxy)-9H-xanthen-9-one]	2.63 ± 0.07 µM	–	0.57	1.49 ± 0.03 µM	–	–	–	–
COc1cc2oc3ccccc3c(=O)c2c(O)c1CN(C)C [2a, 2-((dimethylamino)methyl)-1-hydroxy-3-methoxy-9H-xanthen-9-one]	2.34 ± 0.2 µM	–	4.66	10.9 ± 0.2 µM	–	–	–	–
CCN(CC)Cc1c(OCC=C(C)C)cc2oc3ccccc3c(=O)c2c1O [4b, 2-((diethylamino)methyl)-1-hydroxy-3-(3-methylbut-2-enyloxy)-9H-xanthen-9-one]	2.61 ± 0.13 µM	–	0.20	0.51 ± 0.01 µM	mixed-type inhibition	mixed-type manner	mixed-type inhibition	mixed-type manner
CC(C)=CCOc1cc2oc3ccccc3c(=O)c2c(O)c1CN1CCCCC1 [4d, 1-hydroxy-3-(3-methylbut-2-enyloxy)-2-(piperidin-1-ylmethyl)-9H-xanthen-9-one]	55.3 ± 8.15 µM	–	0.10	5.61 ± 0.08 µM	–	–	–	–
COc1cc2oc3ccccc3c(=O)c2c(O)c1CN1CCOCC1 [2e, 1-hydroxy-3-methoxy-2-(morpholinomethyl)-9H-xanthen-9-one]	7.76 ± 2.36 µM	did not show any inhibition activity	>12.89	> 100 µM	–	–	–	–
O=c1c2ccccc2oc2cc(O)c(CN3CCCC3)c(O)c12 [1c, 1,3-dihydroxy-2-(pyrrolidin-1-ylmethyl)-9H-xanthen-9-one]	81.9 ± 2.04 µM	–	0.43	35.5 ± 1.68 µM	–	–	–	–
CC(C)=CCOc1cc2oc3ccccc3c(=O)c2c(O)c1CN1CCCC1 [4c, 1-hydroxy-3-(3-methylbut-2-enyloxy)-2-(pyrrolidin-1-ylmethyl)-9H-xanthen-9-one]	5.85 ± 0.32 µM	–	0.49	2.89 ± 0.07 µM	–	–	–	–
CC(C)=CCOc1cc2oc3ccccc3c(=O)c2c(O)c1CN1CCOCC1 [4e]	24.2 ± 0.4 µM	–	0.37	8.83 ± 0.36 µM	–	–	–	–
C=CCOc1cc2oc3ccccc3c(=O)c2c(O)c1CN1CCCCC1 [3d, 3-allyloxy-1-hydroxy-2-(piperidin-1-ylmethyl)-9H-xanthen-9-one]	3.7 ± 0.16 µM	–	0.47	1.73 ± 0.08 µM	–	–	–	–
C=CCOc1cc2oc3ccccc3c(=O)c2c(O)c1CN(C)C [3a, 3-allyloxy-2-((dimethylamino)methyl)-1-hydroxy-9H-xanthen-9-one]	5.84 ± 1.19 µM	–	0.80	4.66 ± 0.64 µM	–	–	–	–
COc1cc2oc3ccccc3c(=O)c2c(O)c1CN1CCCC1 [2c, 1-hydroxy-3-methoxy-2-(pyrrolidin-1-ylmethyl)-9H-xanthen-9-one]	4.2 ± 0.29 µM	–	1.72	7.21 ± 0.75 µM	–	–	–	–
COc1cc2oc3ccccc3c(=O)c2c(O)c1CN1CCCCC1 [2d, 1-hydroxy-3-methoxy-2-(piperidin-1-ylmethyl)-9H-xanthen-9-one]	7 ± 0.07 µM	–	1.53	10.6 ± 0.22 µM	–	–	–	–
O=c1c2ccccc2oc2cc(O)c(CN3CCOCC3)c(O)c12 [1e, 1,3-dihydroxy-2-(morpholinomethyl)-9H-xanthen-9-one]	95.4 ± 1.7 µM	did not show any inhibition activity	>1.05	> 100 µM	–	–	–	–
